Values of other authors, collected in patent US6521209B1, “Bifunctional detection agents” (California Institute of Technology, priority 1996, dated 2003).

Settings: for stability constant (K), formation constant, logK: Gd(III) complex

SMILES	stability constant (K), formation constant, logK	dissociation kinetics (at physiological pH)
O=C([O-])CN(CCN(CC(=O)[O-])CC(=O)O)CCN(CC(=O)[O-])CC(=O)O.[Gd+3] [Gd(DTPA)]	22.4	–
O=C([O-])CN1CCN(CC(=O)[O-])CCN(CC(=O)O)CCN(CC(=O)[O-])CC1.[Gd+3] [Gd-DOTA]	28.5	very slow dissociation kinetics
